The values that follow come from ChEMBL document CHEMBL1201862, “PubChem BioAssay data set” (2004).

Calls of active or inactive are those of the source. Rule as the data show it, for most assays here: actives have a measured EC50 and inactives only a lower limit. Some results are limits rather than exact numbers.

One test has as its target T1, Protein skinhead-1 (Caenorhabditis elegans, UniProt P34707).
T1 sequence (P34707 whole entry): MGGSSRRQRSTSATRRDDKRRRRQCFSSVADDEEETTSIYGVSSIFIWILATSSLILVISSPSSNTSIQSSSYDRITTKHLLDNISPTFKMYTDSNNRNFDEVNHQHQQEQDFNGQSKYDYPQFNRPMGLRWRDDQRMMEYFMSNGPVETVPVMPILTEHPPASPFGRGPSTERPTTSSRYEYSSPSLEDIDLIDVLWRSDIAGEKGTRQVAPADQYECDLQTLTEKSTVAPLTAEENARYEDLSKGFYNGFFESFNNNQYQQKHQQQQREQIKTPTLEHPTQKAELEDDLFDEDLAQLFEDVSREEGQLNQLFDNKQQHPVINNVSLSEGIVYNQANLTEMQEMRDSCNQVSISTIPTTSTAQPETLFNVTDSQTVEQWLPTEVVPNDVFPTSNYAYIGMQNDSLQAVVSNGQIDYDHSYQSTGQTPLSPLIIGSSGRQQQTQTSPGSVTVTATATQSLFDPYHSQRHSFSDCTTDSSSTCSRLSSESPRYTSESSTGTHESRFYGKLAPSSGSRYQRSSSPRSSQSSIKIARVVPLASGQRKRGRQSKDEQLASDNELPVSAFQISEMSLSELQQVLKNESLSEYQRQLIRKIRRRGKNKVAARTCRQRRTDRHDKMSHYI
It counts as functional.

For test [1], the target named is T2, Carboxy-terminal domain RNA polymerase II polypeptide A small phosphatase 1 (Homo sapiens, UniProt Q9GZU7).
T2 sequence (Q9GZU7 whole entry): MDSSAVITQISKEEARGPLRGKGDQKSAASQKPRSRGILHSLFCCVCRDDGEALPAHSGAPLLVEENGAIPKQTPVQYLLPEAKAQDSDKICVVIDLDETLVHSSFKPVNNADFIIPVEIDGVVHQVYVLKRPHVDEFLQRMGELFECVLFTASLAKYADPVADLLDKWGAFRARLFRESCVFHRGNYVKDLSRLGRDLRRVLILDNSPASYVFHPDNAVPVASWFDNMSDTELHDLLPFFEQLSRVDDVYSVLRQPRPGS
Nature of the test: CTDSP1 inhibitors, concentration-response, biochemical, absorbance readout, ultra-high-throughput screen actives (AID 540297). It counts as functional.

Another test deals with H4. The test is described as follows: Luminescence Cell-Based Dose Response HTS to Identify Activators of 5'UTR Stem-Loop Driven Prion Protein mRNA Translation in H4 Neuroglioblastoma Cells. [Related pubchem assays: 1829 (Project Summary), 1814 (Primary HTS)]. As to conditions: Homo sapiens. It counts as functional.
Test [2] can be described thus: Luminescence Cell-Based Dose Response HTS to Identify Activators of Luciferase Translation or Activity in H4 […] Cells. [Related pubchem assays: 1829 (Project Summary), 1814 (Primary HTS)]. It counts as functional.
For test [3], the target named is T3, Replicative DNA helicase DnaB (Mycobacterium tuberculosis, UniProt P9WMR3).
T3 sequence (P9WMR3 whole entry): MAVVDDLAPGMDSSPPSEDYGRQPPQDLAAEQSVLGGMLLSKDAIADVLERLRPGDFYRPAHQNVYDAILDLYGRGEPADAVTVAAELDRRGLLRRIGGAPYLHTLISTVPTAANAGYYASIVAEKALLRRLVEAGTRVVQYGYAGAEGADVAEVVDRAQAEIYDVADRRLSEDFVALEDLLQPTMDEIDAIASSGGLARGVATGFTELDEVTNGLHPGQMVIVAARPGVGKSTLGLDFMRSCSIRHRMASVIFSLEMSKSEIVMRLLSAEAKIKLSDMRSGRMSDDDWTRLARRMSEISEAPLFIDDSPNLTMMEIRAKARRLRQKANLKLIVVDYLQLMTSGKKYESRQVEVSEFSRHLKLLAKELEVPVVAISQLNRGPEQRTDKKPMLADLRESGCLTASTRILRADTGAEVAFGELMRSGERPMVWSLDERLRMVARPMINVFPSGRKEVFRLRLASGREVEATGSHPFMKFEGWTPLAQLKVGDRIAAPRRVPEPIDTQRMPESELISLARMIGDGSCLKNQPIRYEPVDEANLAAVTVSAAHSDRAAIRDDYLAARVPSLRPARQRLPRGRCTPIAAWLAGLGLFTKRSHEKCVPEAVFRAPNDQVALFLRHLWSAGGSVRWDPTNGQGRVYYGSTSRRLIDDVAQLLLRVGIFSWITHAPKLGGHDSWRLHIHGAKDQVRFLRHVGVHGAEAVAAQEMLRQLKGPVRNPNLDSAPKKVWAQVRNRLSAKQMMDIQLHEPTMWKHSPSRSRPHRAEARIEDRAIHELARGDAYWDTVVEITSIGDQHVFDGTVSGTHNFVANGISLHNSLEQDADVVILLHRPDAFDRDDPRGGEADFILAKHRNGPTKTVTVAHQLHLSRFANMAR
The test is described as follows: DnaB intein splicing inhibitors, dose response, biochemical, cell-free fluorescence (AID 449749). It counts as functional.

Another test has as its target T4, Protein RecA (Mycobacterium tuberculosis, UniProt P9WHJ3).
T4 sequence (P9WHJ3 whole entry): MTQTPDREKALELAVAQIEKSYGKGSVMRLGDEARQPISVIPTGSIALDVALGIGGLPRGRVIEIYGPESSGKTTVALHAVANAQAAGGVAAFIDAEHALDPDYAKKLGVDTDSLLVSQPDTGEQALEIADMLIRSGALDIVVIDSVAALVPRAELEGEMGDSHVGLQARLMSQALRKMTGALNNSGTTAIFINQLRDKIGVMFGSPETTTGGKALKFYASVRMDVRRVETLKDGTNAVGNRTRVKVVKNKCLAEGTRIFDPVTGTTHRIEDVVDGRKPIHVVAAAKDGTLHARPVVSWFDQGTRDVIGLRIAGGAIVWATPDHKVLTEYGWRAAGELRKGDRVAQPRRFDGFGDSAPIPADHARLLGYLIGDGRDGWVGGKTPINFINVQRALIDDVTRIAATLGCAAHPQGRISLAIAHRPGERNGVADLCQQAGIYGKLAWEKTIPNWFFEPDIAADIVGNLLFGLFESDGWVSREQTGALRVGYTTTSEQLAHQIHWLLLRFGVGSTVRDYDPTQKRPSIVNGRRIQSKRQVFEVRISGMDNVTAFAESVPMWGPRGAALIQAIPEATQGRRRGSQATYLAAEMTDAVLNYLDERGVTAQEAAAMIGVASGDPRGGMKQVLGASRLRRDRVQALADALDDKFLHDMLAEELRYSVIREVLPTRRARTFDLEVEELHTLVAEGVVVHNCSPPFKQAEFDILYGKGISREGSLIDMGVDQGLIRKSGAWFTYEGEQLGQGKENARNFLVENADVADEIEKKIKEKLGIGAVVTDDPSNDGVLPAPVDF
The test is described as follows: Fluorescence Cell-Free Homogeneous Dose Retest to Identify Inhibitors of RecA-Intein Splicing Activity. [Related pubchem assays (depositor defined):AID2097, AID2223, AID489010, AID492950]. It counts as functional.

In test [4] the target is T5, RNA-binding protein pos-1 (Caenorhabditis elegans, UniProt G5EF15).
T5 sequence (G5EF15 whole entry): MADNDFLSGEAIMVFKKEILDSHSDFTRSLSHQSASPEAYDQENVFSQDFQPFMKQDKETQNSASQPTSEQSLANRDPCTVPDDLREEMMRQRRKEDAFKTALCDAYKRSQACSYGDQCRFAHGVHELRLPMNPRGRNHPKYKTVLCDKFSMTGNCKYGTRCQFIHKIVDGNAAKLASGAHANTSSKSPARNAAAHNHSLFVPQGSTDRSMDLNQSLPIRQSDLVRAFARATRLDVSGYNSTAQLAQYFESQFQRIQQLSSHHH
The test is described as follows: disruptors of C. elegans POS-1 RNA interaction – biochemical, fluorescence polarization, dose response (AID 1964).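 Also: purified POS-1 fused to maltose binding protein made in E. coli; potency of compounds blocking POS-1 binding to fluorescent RNA.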

Test [5] concerns the target T6, Zinc finger protein mex-5 (Caenorhabditis elegans, UniProt Q9XUB2).
T6 sequence (Q9XUB2 whole entry): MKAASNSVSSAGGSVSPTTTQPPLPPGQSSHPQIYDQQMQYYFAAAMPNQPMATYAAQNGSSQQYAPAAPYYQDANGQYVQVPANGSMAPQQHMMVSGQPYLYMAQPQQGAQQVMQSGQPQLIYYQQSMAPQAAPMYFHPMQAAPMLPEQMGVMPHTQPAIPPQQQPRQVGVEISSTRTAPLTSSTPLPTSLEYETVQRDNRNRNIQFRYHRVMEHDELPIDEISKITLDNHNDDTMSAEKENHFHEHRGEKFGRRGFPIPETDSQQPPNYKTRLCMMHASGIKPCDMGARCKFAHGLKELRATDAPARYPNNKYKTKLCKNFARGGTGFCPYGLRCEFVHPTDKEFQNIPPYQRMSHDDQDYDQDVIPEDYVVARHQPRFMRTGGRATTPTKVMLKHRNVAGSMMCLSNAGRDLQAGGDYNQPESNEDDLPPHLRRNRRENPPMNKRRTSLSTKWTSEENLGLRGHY
The test is described as follows: potency of MEX-5 RNA-binding blockers – biochemical, C. elegans, fluorescence polarization, dose response (AID 1960). Background: In fluorescence polarisation assays a small probe gives low polarisation when free and higher when bound to something large.

Broadly, the IC50 is the midpoint of a concentration-inhibition curve. A word on the EC50: it is the concentration giving half of the maximal effect. One may read the AC50 as the concentration giving half of the maximal activity seen.

As to `NC(=O)CC(NC(=O)Cc1cccc2ccccc12)c1ccc(N2CCC(N3CCCCC3)CC2)c([N+](=O)[O-])c1` (centres undefined), at Protein skinhead-1, the IC50 was > 100 µM (inactive).
As for `Fc1ccc(CSc2nc3cc(Br)c[nH]c-3n2)cc1`, in test [1], the IC50 was 9.63 µM (active).
Regarding `CCC(=O)N1c2ccc(S(=O)(=O)CCC(=O)NCc3cccs3)cc2CC1C` (centres undefined), the IC50 at Protein skinhead-1 was > 100 µM (inactive).
Turning to `O=C(NCCC1=CCCCC1)c1cnc2n(c1=O)CCS2`, the EC50 with H4 was 56.6 µM (active); in test [2] it was 39.9 µM (active).
Take `CCOc1ccc(Cl)cc1C(c1c(C)n[nH]c1O)c1c(C)n[nH]c1O`: the AC50 in test [3] is 0.551 µM (active). Also, at Protein RecA, the EC50 was 0.221 µM (active).
Regarding `CCOC(=O)N1CC=C2C(C#N)=C(N)C(C#N)(C#N)[C@H](c3ccsc3)[C@H]2C1`, the figures for the EC50 in test [4] and in test [5] were 78.8 µM (active) and 58.7 µM (active), respectively.
Take `O=C(CN1C(=O)N/C(=C\c2ccccc2OCc2ccc(C(=O)O)cc2)C1=O)Nc1ccccc1F`: in test [1], the concentration for half-maximal inhibition (IC50) was 7.13 µM (active).
As for `CC1=NN(c2ccccc2)C(=O)/C1=C/c1cn(C)c2ccccc12`, the AC50 in test [3] was 57.1 µM (active). Besides, the EC50 on Protein RecA is 39 µM (active).
Consider `CN(C)S(=O)(=O)c1ccc(N2CCCC2)c(C(=O)NCc2cccc(C(F)(F)F)c2)c1`, for which, on Protein skinhead-1, the IC50 was > 100 µM (inactive).
Same read-out and setting: for `Cc1cc(C)nc(N2C(=O)CC(C(C)c3ccccc3)C2=O)n1` (centres undefined) the value was > 100 µM (inactive).
With `Cc1nnc(SCC2=C(C(=O)O)N3C(=O)C(NC(=O)COc4ccccc4)C3SC2)s1` (centres undefined), in test [1], the IC50 is 8.97 µM (active).
For the molecule `Cc1nonc1OC(C)CNc1ccc([N+](=O)[O-])cc1` (centres undefined), the IC50 on Protein skinhead-1 is > 100 µM (inactive).
`O=C(Nc1ccc2c(c1)oc1ccccc12)N1CCOCC1`: the EC50 in the test with H4 is > 120 µM (not active); in test [2], 1.32 µM (active).
Turning to `COC(=O)[C@H](CCSC)NC(=O)NC1CCN(Cc2ccccc2)CC1`, the EC50 in test [4] and in test [5] was > 300 µM (not active) each time.
With `Cc1ccc(/N=C/c2sc(O)c3ccccc23)c(C)c1`, the EC50 in test [4] was > 300 µM (not active); in test [5], > 300 µM (inconclusive).
For the molecule `O=C(O)COc1ccc(Br)cc1/C=N/O`, the IC50 in test [1] was 8.03 µM (active).
On the same count and under the same terms, for `N#Cc1c(SCC(=O)Nc2cccc(C(F)(F)F)c2)sc2c(O)cc(O)nc12` the value was 10.4 µM (active).
With `CC(=O)Oc1oc(-c2ccccc2)nc1/C=N/c1ccc(N(C)C)cc1`, the EC50 in test [4] and in test [5] was > 300 µM (not active) in each case.
With `O=C(Nc1cccc(-c2nc3ccccc3s2)c1)c1cc(=O)c2ccccc2o1`, the IC50 in test [1] is 5.07 µM (active).
In the case of `Fc1ccc(COc2ccc(-c3nnco3)cc2)c(Cl)c1`, the IC50 on Protein skinhead-1 was 6.56 µM (active).
Take `CCCn1c(=O)[nH]c(=O)c2c1nc(-c1ccccc1)n2CCN1CCOCC1`: in test [1], the IC50 is 47.8 µM (active).
With `c1ccc(-c2noc(CC3CCCCC3)n2)cc1`, the concentration for a half-maximal effect (EC50) (in the test on H4; in test [2]) was > 120 µM (not active) throughout.
In the case of `COc1ccc(OC)c(C2C(C(=O)c3ccco3)=C(O)C(=O)N2CCN2CCOCC2)c1` (centres undefined), the EC50 in test [4] and in test [5] was > 300 µM (not active) each time.
For the molecule `CC1=C(C)/C(=N\OC(=O)/C=C/c2ccccc2)C=CC1=O`, in test [3], the AC50 was > 380 µM (inactive). For the same molecule, on Protein RecA, the EC50 was 0.532 µM (active).
Turning to `O=C1NC(=O)N(CCc2ccc(F)cc2)C(=O)/C1=C/NNC(=O)c1ccccc1`, the EC50 in test [4] and in test [5] was > 300 µM (not active) in each case.
As to `CC(C)Cn1c(C(C)C)nc([N+](=O)[O-])c1S(=O)(=O)c1ccc(F)cc1`, the AC50 in test [3] is 13.9 µM (active). Also, the EC50 at Protein RecA was 9.69 µM (active).
On to `Cc1[nH]c2ccccc2c1/C=N/NC(=S)NC(C)C`, for which the EC50 in test [4] and in test [5] was > 300 µM (not active) in each case.
For `CC(C)c1ccc2oc(-c3ccc(NC(=O)c4nnc[nH]4)cc3)nc2c1`, in test [1], the IC50 was 6.65 µM (active).
Regarding `O=C(/C=C/c1ccccc1)c1ccc2c3c(cccc13)CC2`, the AC50 in test [3] is > 380 µM (inactive). The concentration giving a half-maximal response (EC50) at Protein RecA is 11.4 µM (active).
